Test: Titration of polyelectrolytes and ICs with MG (zeta potential, Dh, I/c)
Assay type: physicochemical
Conditions: titration of PAA-b-PEO, PArg and ICs with MG, 10 mM NaCl
Experimental: Dynamic (DLS) and static (SLS) light scattering measurements were performed with Brookhaven Instruments, 488 nm and 633 nm, 15 W Ion Laser System, equipped with Avalanche Photodiode Detector; DLS measurements were conducted at 90° detection angle. The light scattering titrations were performed with Malvern Zetasizer equipped with auto-titrator, at detection angle of 173°. Samples from loading experiments were analyzed with Shimadzu UV spectrophotometer (UV-3600).
MG was loaded into the ICs by simple mixing the respective solutions at predetermined ratios. FIG. 3 presents the results of titrations of the polyelectrolytes and ICs consisting of these polyelectrolytes with MG. Upon mixing, we observed no change in zeta potential except for slight increase in case of PArg at the beginning of titration. […] We observed small changes in hydrodynamic diameter (DO and normalized scattering intensity (I/c) of the aggregates, indicating bonding. This was later confirmed with NR studies.

In the case of `COc1ccc(O[C@@H]2O[C@H](CO)[C@@H](O)[C@H](O)[C@H]2O)cc1` [MG, 4-methoxyphenyl β-D-glucopyranoside], the “chargeability of MG (zeta potential upon mixing)” value is reported as “not chargeable”.
